Laboratory results: patent publication US20110224300A1, “USE OF POTASSIUM 2-(a- HYDROXYPENTYL) BENZOATE IN THE MANUFACTURE OF MEDICAMENTS FOR PREVENTING AND/OR TREATING SENILE [sequence]” (Institute of Mataria Medica, Chinese Academy of Me, priority 2008, published 2011)

What was measured:
[1] = test system: permanent 2-VO rats (chronic cerebral hypoperfusion); test: Morris water maze in permanent 2-VO (BCCAO) rats; assay type: in vivo, rat; conditions: Piracetam 600 mg/kg
Text: Chronic cerebral hypoperfusion was proceeded by a permanent, bilateral occlusion of the common carotid arteries (2-VO) of adult rats. The rats were anesthetized with 10% trichloro-acetaldehyde, and temperature probe was inserted into the rectum, and a separate heating lamp was used to maintain rectal temperature at normothermic level. After a midline neck skin incision, the common carotid artery were exposed and ligated by a 5-0 nylon suture.
Rats were randomly divided into six experimental groups (20 rats/each group): one sham-operated group, one vehicle control group, one piracetam-treated group (600 mg/kg), and three dl-PHPB-treated groups (13, 39, and 129 mg/kg). In 10 days after onset of 2-VO, drugs and vehicle were administered orally to rats for 21 days (one time/each day). The spatial learning and memory capability of rats were detected by Morris water maze in the 25-30 days after operation. The Morris water test was commenced at 40 min after drugs treated. The biochemical and pathology assays were conducted later (in 24 h) after behavioral tests.
Subjects were tested in a Morris water maze. This test is based on a standardized assessment of spatial learning ability. The water maze apparatus consisted of a circular, stainless pool (120 cm in diameter, 60 cm in height). It was placed in a dimly lit, sound-proof test room. Multiple distant cues around the room (window, cabinets, furniture) were kept in the same location throughout the experiments. The water was filled to a depth of 40 cm at 25±1° C. and was made opaque by adding milk powder to prevent visualization of the platform. A transparent platform (10 cm diameter) was put 1.5 cm below the surface of the water. The tank was divided into four quadrants with the platform in a fixed position in one quadrant. The subjects were placed into the maze facing the pool wall and were allowed two trials per day, 60 s per trial, to find the hidden platform. If the subject found the platform within the 60 s, it was given a 10-s rest period on the platform between trials. If the pedestal was not located within the time allotted, the subject was placed on to the platform and allowed 10 s until the next trial. The escape latency (time to reach the platform) was used to assess acquisition of the water maze task. Sessions were repeated for five consecutive days. On the sixth day, the platform was removed and the rat was allowed to search for the platform for 60 s (probe test). The time in the platform quadrant and latency time to cross platform location were recorded to measure the spatial learning ability without the influence of chance encounters with the platform. The Morris water maze sessions were recorded with a video camera for offline analysis.

GFAP = GFAP immunohistochemistry, activated astrocytes of 2-VO rats; assay type: in vivo, rat
Procedure: The method for tissue fixation was described above. Serial coronal sections (40 μm) of the brains were cut through the dorsal hippocampus on a freezing microtome and collected in 6-well plates containing 0.01 M PBS. The detection of GFAP and BDNF immunoreactivity was performed using a conventional avidin-biotin-immunoperoxidease technique.
For quantitative analysis, one from every five samples in a continuous series of hippocampal or cortical tissue sections was taken, and was processed immunohistochemically. Thus, three slides were taken from each rat, and were read under an objective (×1.6) microscope. The total area of positively stained neurons was counted with Image-pro Plus 5.0 software.
Cerebral damage caused by hypoperfusion may be the basis for spatial learning and memory impairment, including earliest white matter damage, accompanied by an increase of astrocytes and microglia activation. Glial fibrillary acidic protein (GFAP) immunohistochemical staining can be used to label the activated astrocytes. 2-3 photos were taken from each selected slices in the same regions. The number of the GFAP positive astrocytes was calculated as the average value of the region. Four anatomical regions were selected to observe: the cortex, hippocampus, corpus callosum and optic tract.

[2] = 1st of 5 M/R/T/L column groups (day not printed)
[3] = 2nd of 5 M/R/T/L column groups (day not printed)
[4] = 3rd of 5 M/R/T/L column groups (day not printed)
[5] = 4th of 5 M/R/T/L column groups (day not printed)
[6] = 5th of 5 M/R/T/L column groups (day not printed)

## NC(=O)CN1CCCC1=O [Piracetam, reference compound]
[1]; [2]
  search strategy times, linear mode (L): 1
  search strategy times, marginal mode (M): 10
  search strategy times, random mode (R): 15
  search strategy times, tendency mode (T): 14
[1]; [3]
  search strategy times, linear mode (L): 8
  search strategy times, marginal mode (M): 3
  search strategy times, random mode (R): 11
  search strategy times, tendency mode (T): 17
[1]; [4]
  search strategy times, linear mode (L): 10
  search strategy times, marginal mode (M): 1
  search strategy times, random mode (R): 6
  search strategy times, tendency mode (T): 23
[1]; [5]
  search strategy times, linear mode (L): 10
  search strategy times, marginal mode (M): 1
  search strategy times, random mode (R): 7
  search strategy times, tendency mode (T): 23
[1]; [6]
  search strategy times, linear mode (L): 19
  search strategy times, marginal mode (M): 1
  search strategy times, random mode (R): 8
  search strategy times, tendency mode (T): 12
GFAP; Piracetam, 21 days
  GFAP-positive cells in the optic tract: significantly less than the vehicle group
GFAP; administration of 21 days, P<0.05 or P<0.01
  GFAP-positive cells in the hippocampus: significantly less than in the vehicle group
GFAP; administration of 21 days, in particular dl-PHPB 39 mg/kg (P<0.01)
  GFAP-positive cells in the cortex: significantly less than in the vehicle group
